Measured values published in patent US8343963B2, “Sulfamoyl-phenyl-ureido compounds and their use as medicament” (4SC AG, priority 2009, dated 2013).
≈ marks a conversion by molar mass, not a printed value. Where two headings read alike, the source gives them in different places.

Experiments:
[1] = system: multiresistant Dd2 strain of Plasmodium falciparum; assay: Antiplasmodial activity against Dd2 strain of Plasmodium falciparum ([8-3H]hypoxanthine incorporation); format: cell-based; conditions: 66 h, P. falciparum Dd2, 48 h + 18 h with [8-3H]hypoxanthine, 50% parasite growth inhibition, read-out: Antiplasmodia activity (IC50 class)
Summary of the method: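 Dd2 parasites at 0.3% parasitaemia and 2.5% haematocrit in RPMI 1640 with 10% human serum were exposed to 0.001–100 μM compound for 48 h. [8-3H]hypoxanthine was then added for a further 18 h and incorporation counted by scintillation. IC50 was fitted as 50% growth inhibition.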

[2] = Solubility and solubility-range determination in 50 mM phosphate buffer at different pH; format: physicochemical; conditions: aqueous buffer, kinetic from dmso stock, 1% DMSO, 23° C., read-out: Solubility or solubility range
Procedure: The compounds were dissolved in DMSO at a concentration of 20 mg/ml. These stock solutions were further diluted 1:1 with DMSO (50 μl solution+50 μl DMSO) in seven steps. Subsequently, these solutions were diluted 1:100 (5 μl DMSO-stock+495 μl 50 mM phosphate buffer) in all four pH buffers (respectively: pH=4; pH=6; pH=7.4; pH=9) resulting in a final DMSO concentration of 1% in the buffers. These dilutions were vigorously mixed and transferred into 96-well reading plate. The plates were incubated in a shaker (600 rpm) at 23° C. for 24 hours. After that, the contents of the wells were mixed with a pipette and optical density (OD) was recorded at wavelengths of 550 nm; 600 nm; 650 nm and 700 nm in the Tecan Sunrise plate reader. The cut-off OD sum for an undissolved concentration of a compound was defined as follows: Cut off OD sum=mean blank OD+0.050 OD. For the determination of the solubility range, the following rule was applied: OD>cut off=>compound not dissolved at this concentration OD<cut-off=>compound dissolved at this concentration For the determination of the solubility, a titration curve (OD/concentration) was prepared and the concentrations were determined based on the measured OD of the mixture supernatant after centrifugation. The solubility values are given in μg/ml (table 3).

[3] = In vitro clearance using human liver microsomes; format: in vitro ADME; conditions: human liver microsomes 0.5 mg/ml, 1 μM compound, 37° C., 0-30 min
Procedure: These experiments were performed at Nikem Research (Via Zambeletti 25; Baranzate, Milan, Italy). Test compounds in duplicate at the final concentration of 1 μM were dissolved in DMSO and pre-incubated for 10 min at 37° C. in phosphate buffer pH 7.4, 3 mM MgCl2, with human liver microsomes at the final concentration of 0.5 mg/ml. After the pre-incubation period, reaction was started by adding the cofactor mixture (NADP, Glc6P, G6P-DH); samples were taken at time 0, 5, 10, 15, 20 and 30 min and added to acetonitrile to quench the metabolic reaction, centrifuged and supernatant analysed and quantified by HPLC/MS. A control sample without cofactors was always added in order to check the chemical stability of test compounds. 7-ethoxycoumarin was added as reference standard. A fixed concentration of verapamil was added in every sample as internal standard for HPLC/MS. The concentration of the remaining compound at different times was determined by HPLC/MS. The rate constant, k (min^−1) derived for the exponential decay equation (peak area vs time) was used to calculate the rate of intrinsic clearance (Cli) of the compounds using the following equations: Cli (μl/min/mg compound)=k×V; where: V (μl/mg compound)=incubation volume/mg compound added. In table 3 the clearance (in vitro metabolic stability) classification was as follows: Cli<10=compound stable; Cli between 10 and 60=low metabolism; Cli between 60 and 600=medium metabolism Cli>600=high metabolism.

Row | solubility at 24 h ([2]; pH 4, 50 mM phosphate buffer) | solubility at 24 h ([2]; pH 6, 50 mM phosphate buffer) | solubility at 24 h ([2]; pH 7.4, 50 mM phosphate buffer) | solubility at 24 h ([2]; pH 9, 50 mM phosphate buffer) | SMILES | IC50 [1] | In vitro metabolism as determined from Cli [3]
1 | > 200 µg/mL | > 200 µg/mL | > 200 µg/mL | > 200 µg/mL | CCC(=O)N1CCN(C(=N)c2cccc(NC(=O)Nc3ccc(S(=O)(=O)NCc4ccc(S(N)(=O)=O)cc4)cc3)c2)CC1 [Compound 58, 4-(3-(3-(imino(4-propionylpiperazin-1-yl)methyl)phenyl)ureido)-N-(4-sulfamoylbenzyl)benzenesulfonamide] | < 20 nM | low (Cli between 10 and 60=low metabolism)
2 | 1480 µg/mL (≈ 2350 µM) | 1290 µg/mL (≈ 2040 µM) | 763 µg/mL (≈ 1210 µM) | 456 µg/mL (≈ 724 µM) | COC(=O)N1CCN(C(=N)c2cccc(NC(=O)Nc3ccc(S(=O)(=O)NCc4ccc(S(N)(=O)=O)cc4)cc3)c2)CC1 [Compound 60, methyl 4-(imino(3-(3-(4-(N-(4-sulfamoylbenzyl)sulfamoyl)phenyl)ureido)phenyl)methyl)piperazine-1-carboxylate] | < 20 nM | medium (Cli between 60 and 600=medium metabolism)
